In patent publication US20190359645A1, “2'3'-CYCLIC DINUCLEOTIDES COMPRISING CARBOCYCLIC NUCLEOTIDE” (Institute of Organic Chemistry and Biochemistry ASCR, V.V.I., priority 2018, published 2019):

target: WT STING (Homo sapiens, UniProt Q86WV6, H232R); test: Differential scanning fluorimetry (DSF) with WT STING; format: binding; design: truncated human WT STING or AQ STING (amino acid residues 140-343); 8xHis (N, cleaved yes); SUMO (N, cleaved yes); made in house; host or cells: E. coli Rosetta-gami B (DE3); settings: thermal shift, truncated human WT STING 0.1 mg/ml, 150 μM CDN
Sequence (Q86WV6 140-343 H232R): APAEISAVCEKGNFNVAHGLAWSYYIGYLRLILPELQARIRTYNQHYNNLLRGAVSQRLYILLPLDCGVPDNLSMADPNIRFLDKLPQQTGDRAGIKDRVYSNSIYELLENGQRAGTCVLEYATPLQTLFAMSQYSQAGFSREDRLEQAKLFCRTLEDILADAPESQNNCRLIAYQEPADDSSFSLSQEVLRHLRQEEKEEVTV
Source text: Both WT and AQ human STING (G230A-R^293Q) cDNA were amplified by the use of PCR (Phusion® High-Fidelity DNA Polymerase, cat. # M0530S, NEB, Ipswich, USA) using oligonucleotides hSTING140-BamH-For ([…]) (SEQ ID NO:5) and hSTING379-Not-Rev3 ([…]) (SEQ ID NO:6) from pUNOI-hSTING-WT (cat. # punol-hstingwt, InvivoGen, San Diego, USA) and pUNO1-hSTING-HAQ plasmids (punol-hsting-haq, InvivoGen, San Diego, USA). Purified PCR products were cleaved with restriction enzymes BamHI (cat. # R^0136S, NEB, Ipswich, USA) and NotI (cat. # R^0189S, NEB, Ipswich, USA) and cloned into the pSUMO vector linearized with the identical enzymes. Plasmid pSUMO was created by introducing 8-His-SUMO sequence between NdeI and BamHI sites of pHis-parallel2 plasmid (Clontech, Moutain View, USA). pSUMO-STING WT or pSUMO-STING AQ plasmids thus encoded truncated human WT STING or AQ STING (amino acid residues 140-343) with N-terminal 8×His and SUMO tag.
The recombinant WT STING and AQ STING proteins were overexpressed in Rosetta-gami B (DE3) competent cells (cat. #71136-3, Merck Millipore, Billerica, USA). Bacterial pellets were re-suspended in ice-cold lysis buffer containing 50 mmol·l^−1 TrisCl (cat. # T1503, Sigma Aldrich, Czech Republic) pH 8.0, 300 mmol·l^−1 NaCl, 3 mmol·l^−1 (3-mercaptoethanol (cat. # M6250, Sigma Aldrich, Czech Republic), 10% glycerol (cat. #G5516, Sigma Aldrich, Czech Republic) and 20 mmol·l^−1 imidazole (cat. #15513, Sigma Aldrich, Czech Republic) using Dounce homogenizer. DNase I (cat. # D5025, Sigma Aldrich, Czech Republic) and RNase A (cat. # R^6513, Sigma Aldrich, Czech Republic) were added (final concentration 50 μg/ml) together with MgCl2 (final concentration 5 mmol·l^−1) to the homogenate and bacteria were lysed using French Press G-M™ High-Pressure Cell Press Homogenizer (1500 psi, 3 cycles). Lysate was spun 30,000 g for 20 minutes and supernatant was gently stirred with Ni-NTA resin (cat. #745400.25 Macherey-Nagel, Duren, Germany) for 30 minutes. The resin was poured into a chromatography column, washed with 50 ml buffer A (50 mmol·l^−1 TrisCl (pH 8.0), 800 mmol·l^−1 NaCl, 3 mmol·l^−1β-mercaptoethanol; 10% glycerol; 20 mmol·l^−1 imidazole) and 8-His-SUMO tagged STING proteins were eluted with 15 ml buffer A containing 300 mmol·l^−1 imidazole. The eluted proteins were cleaved with recombinant SUMO protease (80 pig/ml of protein solution, cat. #12588018, ThermoFisher, Waltham, USA). The proteins were further purified by size exclusion chromatography using HiLoad 16/60 Superdex 75 (cat. #28989333, GE Healthcare Bio-Sciences, Pittsburgh, USA) in 50 mmol·l^−1 Tris C1 buffer pH 7.4 containing 150 mmol·l^−1 NaCl, and 10% glycerol. Proteins were concentrated with Amicon® Ultra-15 10 K device (cat. # UFC901008, Merck Millipore, Billerica, USA) and flash frozen in liquid N2.
WT and AQ allelic forms of STING protein were diluted to the final concentration 0.1 mg/ml in 100 mmol·l^−1 TrisCl buffer pH 7.4 containing, 150 mmol·l^−1 NaCl, 1:500 SYPRO Orange (cat. # S6650, ThermoFisher, Waltham, USA) and 150 μM CDN or water. 20 μL solutions of the reaction mixtures were pipetted in triplicates into 96 well optical reaction plates and thermal denaturation of samples were performed on real time PCR cycler (LightCycler® 480 Instrument II—Roche, Basel, Switzerland). The first derivative of the thermal denaturation curves was performed to calculate denaturing temperatures of STING-CDN complexes and STING apoproteins. The thermal shift for each CDN was calculated by subtracting the average denaturing temperature of STING apoprotein from the average denaturing temperature of STING CDN complex.

| SMILES | DSF ΔTm WT STING |
| --- | --- |
| Nc1ncnc2c1ncn2[C@@H]1O[C@@H]2COP(=O)(O)OC3C(O)[C@@H](COP(=O)(O)OC2C1O)C[C@H]3n1cnc2c(=O)[nH]cnc21 (stereo partly drawn) [Compound 121, (6R,8R,15R,17R)-8-(6-amino-9H-purin-9-yl)-3,9,12,18-tetrahydroxy-17-(6-oxo-6,9-dihydro-1H-purin-9-yl)-2,4,7,11,13-pentaoxa-3λ^5,12λ^5-diphosphatricyclo[13.2.1.0^6,10]octadecane-3,12-dione] | 9.4 °C |

same assay, conditions: thermal shift, truncated human WT STING 0.1 mg/ml, 150 μM CDN; read-out: DSF ΔTm WT STING

| SMILES | ΔTm at 150 µM |
| --- | --- |
| CSc1nc(N)nc2c1ncn2[C@@H]1O[C@@H]2COP(=O)(O)OC3C(O)[C@@H](COP(=O)(O)OC2C1O)C[C@H]3n1cnc2c(=O)[nH]c(N)nc21 (stereo partly drawn) [Compound 112, (6R,8R,15R,17R)-8-[2-amino-6-(methylsulfanyl)-9H-purin-9-yl]-17-(2-amino-6-oxo-6,9-dihydro-1H-purin-9-yl)-3,9,12,18-tetrahydroxy-2,4,7,11,13-pentaoxa-3λ^5,12λ^5-diphosphatricyclo[13.2.1.0^6,10]octadecane-3,12-dione] | 0.6 °C |
| Cc1cn([C@@H]2O[C@@H]3COP(=O)(O)OC4C(O)[C@@H](COP(=O)(O)OC3C2O)C[C@H]4n2cnc3c(=O)[nH]c(N)nc32)c2ncnc(N)c12 (stereo partly drawn) [Compound 113, (6R,8R,15R,17R)-8-{4-amino-5-methyl-7H-pyrrolo[2,3-d]pyrimidin-7-yl}-17-(2-amino-6-oxo-6,9-dihydro-1H-purin-9-yl)-3,9,12,18-tetrahydroxy-2,4,7,11,13-pentaoxa-3λ^5,12λ^5-diphosphatricyclo[13.2.1.0^6,10]octadecane-3,12-dione] | 6 °C |
| C#Cc1cn([C@@H]2O[C@@H]3COP(=O)(O)OC4C(O)[C@@H](COP(=O)(O)OC3C2O)C[C@H]4n2cnc3c(=O)[nH]c(N)nc32)c2ncnc(N)c12 (stereo partly drawn) [Compound 114, (6R,8R,15R,17R)-8-{4-amino-5-ethynyl-7H-pyrrolo 2,3-dlpyrimidin-7-yl}-17-(2-amino-6-oxo-6,9-dihydro-1H-purin-9-yl)-3,9,12,18-tetrahydroxy-2,4,7,11,13-pentaoxa-3λ^5,12λ^5-diphosphatricyclo[13.2.1.0^6,10]octadecane-3,12-dione] | 4.4 °C |
| Nc1nc2c(ncn2[C@@H]2C[C@@H]3COP(=O)(O)OC4C(O)[C@H](n5cnc6c(Cl)ncnc65)O[C@@H]4COP(=O)(O)OC2C3O)c(=O)[nH]1 (stereo partly drawn) [Compound 115, (6R,8R,15R,17R)-17-(2-amino-6-oxo-6,9-dihydro-1H-purin-9-yl)-8-(6-chloro-9H-purin-9-yl)-3,9,12,18-tetrahydroxy-2,4,7,11,13-pentaoxa-3λ^5,12λ^5-diphosphatricyclo[13.2.1.0^6,10]octadecane-3,12-dione] | 6.3 °C |
| Nc1nc2c(ncn2[C@@H]2C[C@@H]3COP(=O)(O)OC4C(O)[C@H](n5nnc6c(N)ncnc65)O[C@@H]4COP(=O)(O)OC2C3O)c(=O)[nH]1 (stereo partly drawn) [Compound 116, (6R,8R,15R,17R)-8-{7-amino-3H-[1,2,3]triazolo[4,5-d]pyrimidin-3-yl}-17-(2-amino-6-oxo-6,9-dihydro-1H-purin-9-yl)-3,9,12,18-tetrahydroxy-2,4,7,11,13-pentaoxa-3λ^5,12λ^5-diphosphatricyclo[13.2.1.0^6,10]octadecane-3,12-dione] | 0.9 °C |
| Nc1nc(N)c2ncn([C@@H]3O[C@@H]4COP(=O)(O)OC5C(O)[C@@H](COP(=O)(O)OC4C3F)C[C@H]5n3cnc4c(=O)[nH]c(N)nc43)c2n1 (stereo partly drawn) [Compound 117, (6R,8R,15R,17R)-17-(2-amino-6-oxo-6,9-dihydro-1H-purin-9-yl)-8-(2,6-diamino-9H-purin-9-yl)-9-fluoro-3,12,18-trihydroxy-2,4,7,11,13-pentaoxa-3λ^5,12λ^5-diphosphatricyclo[13.2.1.0^6,10]octadecane-3,12-dione] | 9.4 °C |
| Nc1nc2c(ncn2[C@@H]2C[C@@H]3COP(=O)(S)OC4C(O)[C@H](n5cnc6c(N)ncnc65)O[C@@H]4COP(=O)(O)OC2C3O)c(=O)[nH]1 (stereo partly drawn) [Compound 118, (6R,8R,15R,17R)-17-(2-amino-6-oxo-6,9-dihydro-1H-purin-9-yl)-8-(6-amino-9H-purin-9-yl)-3,9,18-trihydroxy-12-sulfanyl-2,4,7,11,13-pentaoxa-3λ^5,12λ^5-diphosphatricyclo[13.2.1.0^6,10]octadecane-3,12-dione] | 8.5 °C |
| Nc1ncc2ncn([C@@H]3O[C@@H]4COP(=O)(O)OC5C(O)[C@@H](COP(=O)(O)OC4C3O)C[C@H]5n3cnc4c(=O)[nH]cnc43)c2n1 (stereo partly drawn) [Compound 119, (6R,8R,15R,17R)-8-(2-amino-9H-purin-9-yl)-3,9,12,18-tetrahydroxy-17-(6-oxo-6,9-dihydro-1H-purin-9-yl)-2,4,7,11,13-pentaoxa-3λ^5,12λ^5-diphosphatricyclo[13.2.1.0^6,10]octadecane-3,12-dione] | 5.2 °C |
| Nc1ncnc2c1ncn2[C@@H]1O[C@@H]2COP(=O)(O)OC3C(O)[C@@H](COP(=O)(O)OC2C1O)C[C@H]3n1cnc2c(=O)[nH]cnc21 (stereo partly drawn) [Compound 120, (6R,8R,15R,17R)-8-(6-amino-9H-purin-9-yl)-3,9,12,18-tetrahydroxy-17-(6-oxo-6,9-dihydro-1H-purin-9-yl)-2,4,7,11,13-pentaoxa-3λ^5,12λ^5-diphosphatricyclo[13.2.1.0^6,10]octadecane-3,12-dione] | 10.6 °C |
| Nc1ncnc2c1ccn2[C@@H]1O[C@@H]2COP(=O)(O)OC3C(O)[C@@H](COP(=O)(O)OC2C1O)C[C@H]3n1cnc2c(=O)[nH]cnc21 (stereo partly drawn) [Compound 122, (6R,8R,15R,17R)-8-{4-amino-7H-pyrrolo[2,3-d]pyrimidin-7-yl}-3,9,12,18-tetrahydroxy-17-(6-oxo-6,9-dihydro-1H-purin-9-yl)-2,4,7,11,13-pentaoxa-3λ^5,12λ^5-diphosphatricyclo[13.2.1.0^6,10]octadecane-3,12-dione] | 6.7 °C |
| Cc1cn([C@@H]2O[C@@H]3COP(=O)(O)OC4C(O)[C@@H](COP(=O)(O)OC3C2O)C[C@H]4n2cnc3c(=O)[nH]cnc32)c2ncnc(N)c12 (stereo partly drawn) [Compound 123, (6R,8R,15R,17R)-8-{4-amino-5-methyl-7H-pyrrolo[2,3-d]pyrimidin-7-yl}-3,9,12,18-tetrahydroxy-17-(6-oxo-6,9-dihydro-1H-purin-9-yl)-2,4,7,11,13-pentaoxa-3λ^5,12λ^5-diphosphatricyclo[13.2.1.0^6,10]octadecane-3,12-dione] | 6.3 °C |
| Nc1ncnc2c1c(I)cn2[C@@H]1O[C@@H]2COP(=O)(O)OC3C(O)[C@@H](COP(=O)(O)OC2C1O)C[C@H]3n1cnc2c(=O)[nH]cnc21 (stereo partly drawn) [Compound 124, (6R,8R,15R,17R)-8-{4-amino-5-iodo-7H-pyrrolo[2,3-d]pyrimidin-7-yl}-3,9,12,18-tetrahydroxy-17-(6-oxo-6,9-dihydro-1H-purin-9-yl)-2,4,7,11,13-pentaoxa-3λ^5,12λ^5-diphosphatricyclo[13.2.1.0^6,10]octadecane-3,12-dione] | 5.6 °C |
